{"source": "ChEMBL document CHEMBL1201862", "about": "“PubChem BioAssay data set” (2004)", "assay_in_all_cases": "growth of human tumour cells (NCI), 48 h", "key": {"DLD-1": {"system": "DLD-1"}, "DMS-114": {"system": "DMS-114"}, "DMS-273": {"system": "DMS-273"}, "KM-20L2": {"system": "KM-20L2"}, "M19-MEL": {"system": "M19-MEL"}, "XF498": {"system": "XF498"}, "HOP-18": {"system": "HOP-18"}, "BT-549": {"system": "BT-549"}}, "note": "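Grown in 96-well plates, cells were treated for 48 hours with each compound at five concentrations. Insufficient inhibition: endpoint recorded as highest concentration tested. At the GI50, growth is halved.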 Calls of active or inactive are those of the source. Rule as the data show it: active = GI50 up to about 1.1 µM and inactive = higher.", "data": [{"compound": "COc1c(C)cc2c(c1O)C1C3[C@H]4SC[C@@]5(NCCC6=C5NC5C=CC=CC65)C(=O)OCC(c5c6c(c(C)c(OC(C)=O)c54)OCO6)N3[C@@H](O)C(C2)N1C", "note": "(stereo not given in full)", "values": [{"measurement": "GI50", "setting": "DLD-1", "result": "< 0.01 µM (active)"}, {"measurement": "GI50", "setting": "DMS-114", "result": "< 0.01 µM (active)"}, {"measurement": "GI50", "setting": "DMS-273", "result": "< 0.01 µM (active)"}, {"measurement": "GI50", "setting": "KM-20L2", "result": "< 0.01 µM (active)"}, {"measurement": "GI50", "setting": "M19-MEL", "result": "< 0.01 µM (active)"}, {"measurement": "GI50", "setting": "XF498", "result": "< 0.01 µM (active)"}]}, {"compound": "NC1=NS(=O)(=O)Nc2nc(-c3ccc([N+](=O)[O-])cc3)[nH]c21", "values": [{"measurement": "GI50", "setting": "DLD-1", "result": "> 100 µM (inactive)"}, {"measurement": "GI50", "setting": "DMS-114", "result": "> 100 µM (inactive)"}, {"measurement": "GI50", "setting": "DMS-273", "result": "> 100 µM (inactive)"}, {"measurement": "GI50", "setting": "HOP-18", "result": "> 100 µM (inactive)"}, {"measurement": "GI50", "setting": "M19-MEL", "result": "> 100 µM (inactive)"}]}, {"compound": "O=S1(=O)N=C(SCc2c[nH]c3ccccc23)N(c2ccccc2)c2ccncc21", "values": [{"measurement": "GI50", "setting": "BT-549", "result": "59 µM (inactive)"}]}, {"compound": "CCn1c(=O)c2c3cc(OC(C)=O)ccc3oc2c2ccc(OC(C)=O)cc21", "values": [{"measurement": "GI50", "setting": "BT-549", "result": "30.5 µM (inactive)"}]}, {"compound": "C[C@]12CCC3c4ccc(O)cc4CC[C@H]3C1CC(=O)N(CCN1CCCC1)C2=O", "note": "(stereo not given in full)", "values": [{"measurement": "GI50", "setting": "BT-549", "result": "> 10 µM (inactive)"}]}, {"compound": "NC(CSSCC(N)Cc1ccccc1)Cc1ccccc1", "note": "(stereo not given)", "values": [{"measurement": "GI50", "setting": "DLD-1", "result": "49.5 µM (inactive)"}, {"measurement": "GI50", "setting": "DMS-114", "result": "39.2 µM (inactive)"}, {"measurement": "GI50", "setting": "DMS-273", "result": "> 10 µM (inactive)"}, {"measurement": "GI50", "setting": "KM-20L2", "result": "71.1 µM (inactive)"}, {"measurement": "GI50", "setting": "M19-MEL", "result": "49 µM (inactive)"}, {"measurement": "GI50", "setting": "XF498", "result": "27.1 µM (inactive)"}]}, {"compound": "CC(C)Cc1c(C#N)c(C#N)c(N)n1Cc1ccccc1", "values": [{"measurement": "GI50", "setting": "BT-549", "result": "> 100 µM (inactive)"}]}, {"compound": "COc1cccc2c(NNc3ccc(Cl)cc3)c3ccc([N+](=O)[O-])cc3nc12", "values": [{"measurement": "GI50", "setting": "BT-549", "result": "14 µM (inactive)"}]}, {"compound": "Cc1cc(C)c(C(=O)c2nnc3ccccc3c2N)c(C)c1", "values": [{"measurement": "GI50", "setting": "BT-549", "result": "63.1 µM (inactive)"}]}, {"compound": "OC(C#CCN1CCCC1)(c1ccccc1)c1ccccc1Cl", "note": "(stereo not given)", "values": [{"measurement": "GI50", "setting": "BT-549", "result": "46.2 µM (inactive)"}]}, {"compound": "c1ccc(/N=C2\\c3ccccc3CN2c2ccccc2)cc1", "values": [{"measurement": "GI50", "setting": "BT-549", "result": "> 100 µM (inactive)"}]}, {"compound": "CCOC1=NC(=O)CC(c2ccccc2)S1", "note": "(stereo not given)", "values": [{"measurement": "GI50", "setting": "DLD-1", "result": "95.5 µM (inactive)"}, {"measurement": "GI50", "setting": "DMS-273", "result": "> 100 µM (inactive)"}, {"measurement": "GI50", "setting": "KM-20L2", "result": "> 100 µM (inactive)"}, {"measurement": "GI50", "setting": "M19-MEL", "result": "> 100 µM (inactive)"}, {"measurement": "GI50", "setting": "XF498", "result": "> 100 µM (inactive)"}]}, {"compound": "O=C(NO)C12C3C4C1C1C2C3C41C(=O)NO", "note": "(stereo not given)", "values": [{"measurement": "GI50", "setting": "DLD-1", "result": "> 100 µM (inactive)"}, {"measurement": "GI50", "setting": "DMS-114", "result": "> 100 µM (inactive)"}, {"measurement": "GI50", "setting": "DMS-273", "result": "> 100 µM (inactive)"}, {"measurement": "GI50", "setting": "HOP-18", "result": "> 100 µM (inactive)"}, {"measurement": "GI50", "setting": "KM-20L2", "result": "> 100 µM (inactive)"}, {"measurement": "GI50", "setting": "M19-MEL", "result": "> 100 µM (inactive)"}]}, {"compound": "COCN1COCN(C)C1=O", "values": [{"measurement": "GI50", "setting": "DLD-1", "result": "> 100 µM (inactive)"}, {"measurement": "GI50", "setting": "DMS-114", "result": "> 100 µM (inactive)"}, {"measurement": "GI50", "setting": "DMS-273", "result": "> 100 µM (inactive)"}, {"measurement": "GI50", "setting": "HOP-18", "result": "> 100 µM (inactive)"}, {"measurement": "GI50", "setting": "KM-20L2", "result": "> 100 µM (inactive)"}, {"measurement": "GI50", "setting": "M19-MEL", "result": "> 100 µM (inactive)"}, {"measurement": "GI50", "setting": "XF498", "result": "> 100 µM (inactive)"}]}, {"compound": "CCC[C@H](O)[C@@H](CNc1cc(NC(C)=O)nc(NC(C)=O)n1)N(Cc1ccccc1)Cc1ccccc1", "values": [{"measurement": "GI50", "setting": "BT-549", "result": "16.1 µM (inactive)"}]}, {"compound": "O=S(=O)(N/C(=N\\O)Nc1ccc(Cl)cc1)c1cc2ccccc2o1", "values": [{"measurement": "GI50", "setting": "BT-549", "result": "17.9 µM (inactive)"}]}, {"compound": "COC1(OC)C[C@H](C)[C@@]23O[C@]24C2=CC(=O)C=CC2=N[C@H]3C#C/C=C\\C#C[C@]14O", "values": [{"measurement": "GI50", "setting": "BT-549", "result": "1 µM (active)"}]}, {"compound": "Cc1cn(C2CC(N(O)Cc3ccccc3)C(CO)O2)c(=O)[nH]c1=O", "note": "(stereo not given)", "values": [{"measurement": "GI50", "setting": "DMS-114", "result": "> 100 µM (inactive)"}, {"measurement": "GI50", "setting": "DMS-273", "result": "> 100 µM (inactive)"}, {"measurement": "GI50", "setting": "KM-20L2", "result": "> 100 µM (inactive)"}, {"measurement": "GI50", "setting": "M19-MEL", "result": "> 100 µM (inactive)"}, {"measurement": "GI50", "setting": "XF498", "result": "> 100 µM (inactive)"}]}, {"compound": "CSc1c([S+](C)[O-])[nH]c2cc(Br)cc(Br)c12", "note": "(stereo not given)", "values": [{"measurement": "GI50", "setting": "DLD-1", "result": "16.5 µM (inactive)"}, {"measurement": "GI50", "setting": "DMS-273", "result": "16.4 µM (inactive)"}, {"measurement": "GI50", "setting": "HOP-18", "result": "39.5 µM (inactive)"}, {"measurement": "GI50", "setting": "M19-MEL", "result": "29.2 µM (inactive)"}]}]}
